Test results taken from the NIST ThermoML archive (doi:10.1016/j.jct.2011.04.010).
± gives the expanded uncertainty stated by the source.

Assay: xn = mol fraction of the nth substance listed
Conditions: 101 kPa, Liquid, x2 = 0; for mass density: Vibrating tube method

speed of sound (298.15 K, Ecolab MPFU speed of sound meter): 1279.6 ± 2 m/s | mass density (308.15 K): 765.735 ± 0.13 kg/m3 | mass density (318.15 K): 755.763 ± 0.14 kg/m3
SMILES: CC#N [acetonitrile] + COCCO
